Test results reported in publication PMC6756013, “B591, a novel specific pan-PI3K inhibitor, preferentially targets cancer stem cells” (Oncogene, 2019).

Tested on: PI3K/Akt/mTORC1 and mTORC2 signaling in multiple cancer cell lines
Assay: Western blot of PI3K downstream effectors in multiple tumor cell lines
Assay type: cell-based
Conditions: 5 h
Method: Fig. 2 B591 inhibits PI3K/Akt pathway in multiple cancer cell lines. a Representative images of Akt1 redistribution in IGF-1-treated cells in the absence or presence of B591. Scale bar represents 10 μm. Arrows indicate IGF-1-mediated membrane translocation detected by the image analysis algorithm. b Inhibition of mTORC1 and mTORC2 signaling in multiple cancer cell lines, exposed for 5 h to increasing concentrations of B591. c HepG2 cells were treated with DMSO or 20 μM of B591 for 5 h. Immunofluorescence (red) intensity reflects eIF4E subcellular distribution. Cells were visualized with high content reader. Representative images are shown, and scale bar represents 50 μm. d Nuclear-to-cytoplasmic ratio of eIF4E in five cancer cell lines was determined via high content reader. e The phosphorylation of AKT and ERK was determined by immunoblotting in RD cells in the presence of 10 μM of B591 after indicated time of exposure. f Inhibition of the phosphorylation of AKT and ERK in RD cells treated with B591, PI-103 or Rapamycin for 24 h was determined by immunoblotting
The key effectors downstream of PI3K were examined by western blot analysis in multiple tumor cell lines with different genetic background. […] Most recent study identified PtdIns(3,4,5)P3, which is generated by activated PI3K, as a direct upstream activator for mTORC2, highlighting the critical role of PI3K in mTORC2 activation. Therefore, the effect of B591 on mTORC2 signaling was evaluated by testing the phosphorylation levels of Akt at Ser473 and its substrate GSK3β at Ser9.

Cc1cc2c(cc1C)[n+](Cc1ccccc1Br)cn2Cc1ccc2c(c1)CCO2.[Br-] [B591, 3-(2-bromobenzyl)-1-((2,3-dihydrobenzofuran-5-yl)methyl) -5,6-dimethyl-1H-benzo[d]imidazol-3-ium bromide]
PI3K/Akt/mTORC1 signaling (phosphorylation of 4E-BP1, S6K1, S6): effectively inhibited PI3K/Akt/mTORC1 signaling | mTORC2 signaling: p-Akt (Ser473) and p-GSK3β (Ser9) (all tested cell types): concentration-dependent decrease | Phosphorylation of Akt at Thr308 (increasing concentrations): potently inhibited
